Reference: patent US11331312B2, “Treatment of H-Ras-driven tumors” (MEMORIAL SLOAN-KETTERING CANCER CENTER, priority 2014, dated 2022)
“Also recorded” adds a separate entry of the source.

Columns and labels:
[1] = system: MAPK pathway signaling effectors; test: Western blots of MAPK pathway signaling effectors in HP-ATC1 mouse cell line; assay type: cell-based; conditions: HP-ATC1 cells, 1.5% serum, increasing concentrations of drug, Western blot
Experimental: (§1) FIGS. 2A and B show the results of exposure of mouse cell lines from tumor bearing Tpo-Cre/FR-HrasG12V/p53flox/flox mice to farnesyltransferase inhibitors. Mouse cell lines were generated from tumor bearing Tpo-Cre/FR-HrasG12V/p53flox/flox mice by collagenase/dispase digestion and maintained in Coon's F-12 media with serum. After 15 passages, cells were plated in 1.5% serum and exposed to increasing concentrations of indicated drug. (A) Western blots were performed for indicated proteins (antibodies from Cell Signaling with exception of Hras which was from Santa Cruz).
(§2) Development and characterization of mouse cell lines from TPO-Cre, Hras-G12V+/+, p53f/f mice: In order to study this model in vitro, we developed a mouse cell line (HP-ATC1) from an animal with ATC. The cell line was confirmed to harbor the HrasG12V mutation, and maintained primary tumor characteristics, including its spindle shape and the relative expression of E-cadherin and vimentin through serial passaging (x6-10).
(§3) The FTIs Tipifarnib and Lonafarnib block MAPK signaling and growth of mouse Tpo-Cre, HRas-G12V+/+, p53f/f cell line: There are currently no therapies that directly target oncogenic forms of oncogenic Ras.
(§4) Mouse cell lines were generated from tumor bearing Tpo-Cre/FR-HrasG12V/p53flox/flox mice by collagenase/dispase digestion and maintained in Coon's F-12 media with serum. […]

[2] = system: Hras-G12V+/+/p53-null thyroid cancers; test: 2-week FTI treatment of mice with thyroid cancers, tumor volume by 3D ultrasound; assay type: in vivo, mouse; conditions: 80 mg/kg twice daily by gavage, 2 weeks (14 days)
Experimental: FIG. 3 is a schematic showing the design of the in vivo study of tipifarnib in Tpo-Cre/FR-Hras^G12V/p53^flox/flox mice. Mice were treated for 14 days with tipifarnib 80 mg/kg BID by gavage. Tipifarnib was prepared in 20% beta-cyclodextran. 3D ultrasound was performed before and after treatment to assess percent change in tumor volume.
Tumors in each treatment group were sized matched at the beginning of therapy.
FIG. 5 is a waterfall plot of the same mice but with an additional cohort of mice treated with lonafarnib added. Of note the lonafarnib treated mice were not size matched to the vehicle group.
(§5) The activity of these compounds in vivo was explored. Mice were treated for 2 weeks with tipifarnib or lonafarnib at 80 mg/kg twice daily (drug mixed in 20% beta-cyclodextran and given by gavage). […] Treatment with FTIs was well tolerated in the mice with no significant differences in animal weight between vehicle and drug at 14 days (FIG. 6). Next mice were treated with Tipifarnib or vehicle for an extended time course. Of note, for this experiment tumors in each group were size-matched at the time of treatment initiation (FIG. 8).

HP-ATC1 cells = test: 6 day proliferation assay in HP-ATC1 mouse cell line; assay type: cell-based; conditions: 1.5% serum, 6 day assay, increasing concentrations of drug
Experimental: as §1, §2, §3, §4

[3] = Body weight and tolerability of treated mice; assay type: in vivo, mouse; conditions: 80 mg/kg BID
Experimental: as §5

Compound | inhibition of MAPK effector phosphorylation [1] | change in thyroid tumor volume (ultrasound) compared to vehicle-treated mice [2] | inhibition of proliferation (HP-ATC1 cells) | animal weight, drug vs vehicle ([3]; 14 days) | toxicity / tolerability ([3]; two weeks of treatment)
NC(=O)N1CCC(CC(=O)N2CCC([C@H]3c4ncc(Br)cc4CCc4cc(Cl)cc(Br)c43)CC2)CC1 [lonafarnib] | dose-dependent inhibition | Consistent inhibition of growth; also recorded: Significant reduction in thyroid tumor volume | dose-dependent inhibition of proliferation |  | 
Cn1cncc1[C@@](N)(c1ccc(Cl)cc1)c1ccc2c(c1)c(-c1cccc(Cl)c1)cc(=O)n2C [tipifarnib] |  |  |  | No differences | minimal toxicity
